Reference: patent US20110201648A1, “POLY-HETEROARYL DERIVATIVES FOR THE TREATMENT OF CANCER” (INSTITUT CURIE, priority 2008, published 2011)

Experiments:
[1] = system: c-kit2 quadruplex-DNA; test: Fluorescence titration with c-kit2; type: binding; details: 0.25 μM compound, cacodylate buffer + 100 mM KCl, λex=340 nm
Experimental: The intra-quadruplex selectivity is evaluated through fluorescence titrations by comparison of experiments carried out with 22AG (see above) and with two other quadruplex-structures: c-myc and c-kit2. The formation of these two quadruplex-DNAs is currently highly suspected in the promoter region of c-myc (see above) and c-kit (22; 29 and 30)oncogenes. The sequences are the following: c-myc: [5′-[…]-3′] and c-kit2: [(5′-[…]-3′]; Quadruplex-structures are prepared by heating the corresponding oligonucleotide at 90° C. for 5 min in a 10 mM sodium cacodylate buffer pH 7.2, 100 mM KCl and cooling in ice to favor the intramolecular folding by kinetic trapping. Concentrations are determined by UV-Vis measurements (after thermal denaturation, 5 min at 85° C.) at 260 nm before use.

[2] = system: 22AG quadruplex-DNA; test: Circular dichroism with 22AG; type: binding, human
Experimental: Circular dichroism (CD) enables a deep study of the modification of the DNA structure upon the binding of a ligand; it thus reflects the affinity of the ligand to its target, and can also provide insight into its binding mode (Paramasivan et al, Methods, 2007, 43, 324).
The quadruplex-DNA used herein is 22AG (see above), annealed both in a 10 mM sodium cacodylate buffer pH 7.2, 100 mM NaCl (for 22AG Na) or KCl (for 22AG K). To a 3 μM solution of 22AG in both buffers is added an excess of compound 3 (30 μM, 10 equiv.).
The equilibrium between folded and unfolded forms of 22AG oligonucleotide is highly sensitive to the presence and the nature of the buffer it is used in. In low cationic buffer like 10 mM Tris.HCl, pH 7.2, 22AG is mostly unfolded (random coiled); it is thus possible to influence the folded <-> unfolded equilibrium by adding compound 3. Thus, to a 3 μM solution of random coiled 22AG in Tris.HCl buffer are added increasing amounts of compound 3 (from 0 to 7.5 equiv.); it results in a deep modification of the CD signal of 22AG, with a disappearance of the random coiled-typical 257 nm signal to the benefit of two novel maxima, one positive (near 290 nm) and one negative (near 265 nm), both being typical of the CD signature of ‘anti-parallel’ quadruplex-DNA structure (as 22AG Na, see above).

[3] = molecular target: hPOT1; test: Electrophoretic mobility shift assay, POT1/22AG binding; set-up: species or system human; details: 30 nM hPOT1, 20 nM 32P-22AG, 30 min room temperature
Experimental: An electrophoretic mobility shift assay using hPOT1 was performed on the telomeric 22AG oligonucleotide (see above). 22AG was labeled at the 5′ end with [γ-^32P]-ATP using T4 polynucletide kinase. Purified recombinant hPOT1 was produced in a baculovirus expression system. The POT1/22AG binding assay was performed in a total volume of 10 μl containing 50 mM HEPES, pH 7.9, 100 mM NaCl, 0.1 mM EDTA, 4% w/v sucrose, 2% v/v glycerol, 0.1 mg/ml BSA, 0.02% w/v bromophenol blue, 30 nM hPOT1, 20 nM [[…]-^32P]-22AG. Different concentrations of compound 3 (10, 1, 0.1 and 0.01 μM) were added with hPOT1 to the solution and the mixture was incubated at room temperature for 30 min. Each individual sample was separated by electroporesis on 1% agarose gel in 0.5×Tris-Borate-EDTA buffer. The gel was run at 80V for 35 min, dried on whatman DE81 paper and radiaoactivity visualized by a phosphorimager (Typhoon 9210, Amersham). Analysis of the data was carried out by ImageQuant software (Amersham) and results were expressed as a percentage of the POT1-22AG complex obtained in the untreated control (defined as 100%) (see FIG. 14).

[4] = system: F21T (human telomeric quadruplex-DNA); test: FRET-melting assay with F21T; type: binding; details: for ΔT1/2 F21T: 0.2 μM F21T, 1 μM compound; for F21T stabilization maintained: sodium buffer
Experimental: Stabilization, and so interaction, of compounds with quadruplex-structure is monitored via FRET-melting assay, in a version that also enables the determination of the quadruplex-over duplex-DNA selectivity as well as the intra-quadruplex selectivity (17).
FRET assay is performed with oligonucleotides that mimic the human or plasmodium telomeric sequences, and equipped with FRET partners at each extremities: F21T (FAM-G3[T2AG3]3-Tamra,) FPf1T (FAM-G3[T3AG3]3-Tamra) and FPf8T (FAM-G3[T2CAG3]3-Tamra) with FAM: 6-carboxyfluorescein and Tamra: 6-carboxy-tetramethylrhodamine). Measurements were made with excitation at 492 nm and detection at 516 nm.
Fluorescence melting were carried out. The results are given on FIG. 3A-FIG. 3C. The experiments were carried out with 0.2 μM of F21T, FPf1T or FPf8T in a buffer containing 10 mM lithium cacodylate pH 7.2 and 100 mM NaCl or KCl (see example of F21T below, NaCl (left) and KCl (right)); the melting of the quadruplex-DNA was monitored alone and in the presence of 1 μM (5 equiv.) of compound 3.
Fluorescence melting are carried out with 0.2 μM of F21T in a buffer containing 10 mM lithium cacodylate pH 7.2 and 100 mM NaCl; the melting of the G-quadruplex was monitored alone and in the presence of 1 μM of compound 3 without or with excess (1, 3 and 10 μM) of duplex-DNA competitor ds26 (a 26 base-pair duplex-DNA comprised of the self complementary sequence [5′-[…]-3′]). The results are given on FIG. 4
Fluorescence melting experiments are carried out with 0.2 μM of F21T in a buffer containing 10 mM lithium cacodylate pH 7.2 and 100 mM NaCl; the melting of the G-quadruplex was monitored alone and in the presence of 1 μM of compound 3 without or with excess (1, 3 and 10 μM) of quadruplex-DNA competitors, both TG5T ([(5′-TG5T-3′)4], a tetramolecular quadruplex-DNA used in previous study (21) or c-myc ([5′-[…]-3′], a sequence present in the promoter region of the oncogene c-myc, highly suspected to fold into an intramolecular quadruplex-structure (22-25). The results are given on FIG. 5A-FIG. 5B.
FIG. 16 gives results obtained in FRET-melting, using the same sodium conditions as above defined in a) and b), with compounds 3 and 4. The melting of the Fluorescently labelled quadruplex F21T was monitored alone and in the presence of 1 μM of compound 3 or compound 4 without or with excess (1.3 and 10 μM) of duplex-DNA competitor ds26 (a 26 base-pair duplex DNA comprised the above mentioned self-complementary sequence [5′-[…]-3′]).

With `c1cc(-c2cnc(-c3cccc(-c4cnco4)n3)o2)nc(-c2cnc(-c3cccc(-c4cnco4)n3)o2)c1` [compound 3, 2,6-bis{2-[6-(oxazol-5-yl)pyridin-2-yl]oxazol-5-yl}pyridine] the “fluorescence of compound upon addition of c-kit2” value [1] was “progressive quench of the fluorescence”, the “CD signal of 22AG K” value ([2]; 3 μM 22AG, 30 μM compound (10 equiv.), 100 mM KCl, 263 nm) was “reorganises completely the structure” and the “CD signal of 22AG Na” value ([2]; 3 μM 22AG, 30 μM compound (10 equiv.), 100 mM NaCl, 263 nm) was “modification of the amplitude of the CD signal”. The “quadruplex-structure induction (folded/unfolded equilibrium of 22AG)” value ([2]; 3 μM random coiled 22AG in 10 mM Tris.HCl pH 7.2, 0 to 7.5 equiv. compound) was “able to shift the equilibrium between the unfolded and the folded form of 22AG toward the folded one”, the IC50 [3] was 300 nM and the “ΔT1/2 F21T” value ([4]; K+ (100 mM KCl)) was 1.3 °C. For the same compound, the “ΔT1/2 F21T” value ([4]; Na+ (100 mM NaCl)) was 14.6 °C, the F21T stabilization maintained ([4]; 1 μM of TG5T competitor) was 61% and the F21T stabilization maintained ([4]; 1 μM of c-myc competitor) was 42%. It also gave an F21T stabilization maintained ([4]; 3 μM of TG5T competitor) of 37%, an F21T stabilization maintained ([4]; 3 μM of c-myc competitor) of 15% and an F21T stabilization maintained ([4]; 10 μM of TG5T competitor) of 17%. The F21T stabilization maintained ([4]; 10 μM of c-myc competitor) was 1% and the F21T stabilization maintained ([4]; in presence of 1, 3 or 10 μM of ds26 duplex competitor) was over 91%.
